Laboratory results reported in PMC5614982, “Impact of Gastric H^+/K^+-ATPase rs2733743 on the Intragastric pH-Values of Dexlansoprazole Injection in Chinese Subjects” (Frontiers in Pharmacology, 2017).
Marks after values point to notes of the source that are not given here.

System: intragastric pH
Assay: 24-h intragastric pH monitoring after single intravenous dexlansoprazole in healthy Chinese subjects
Format: in vivo, human
Details: 30 mg iv
Protocol: Dexlansoprazole injection (30 mg per vial) used in the PK and PD study was manufactured by Nanjing Yoko Pharma Co., Ltd. (Nanjing, China). Subjects received an intravenous infusion of 20 or 30 mg dexlansoprazole injection in sterile saline solution (100 mL/h, 60 min). The study drug was administrated with an infusing pump (SA213, Lifepum, Beijing, China) and given through an intravenous catheter in the antecubital vein opposite to the one from which blood samples were taken.
An ambulatory pH recorder (Orion II, MMS, USA) with a disposable pH catheter (VersaFlex, MMS, USA) was used to monitor intragastric pH. The electrode was placed in water for at least 10 min and then calibrated using standard buffer solutions (pH 1.07 and 7.01) before intubation. Both calibration and intubation processes were conducted under the guidance of MMS Virtual Instructor Program. The catheter, trans nasally placed 10 cm under the lower esophageal sphincter, was identified by a sharp decrease in pH (Wang et al., [2010], [2011]). Subjects were intubated on baseline and the day of dosing at about 7:30 a.m., and the intragastric pH data were recorded continuously for 24 h from 8:00 a.m. Intragastric pH was sampled every second, and the data were stored in a MMS Database program (MMS, USA). The PD parameters including Median (pH), Mean (pH), TpH≥3 (%), TpH≥4 (%), TpH≥6 (%), TpH≥6, and AUC^pH−t were analyzed by the MMS Database program.
Median (pH) and mean (pH) were well-investigated in most studies, and the percentage time of pH ≥ 4 (or pH ≥ 4 holding time ratio) was the benchmark for predicting clinical efficacy of PPIs in treating acid-related diseases (Metz et al., [2009]). Novel parameter TpH≥6 (time to first gastric pH ≥ 6, min) and AUCτ 1-τ 2pH-t (area under pH-time curve from τ1 to τ2, pH·s) were defined to evaluate the velocity and extent of pharmacodynamics with more accuracy. All parameters were calculated and compared according to time periods of 0–24, 0–4, 4–10, 10–14, and 14–24 h post dosing.
The parameter AUCτ 1-τ 2pH-t was calculated as follows:
Where t represented the time duration measured by seconds, AUCτ 1-τ 210-t was the area between the pH line = 10 and the pH-time curve, which was generated by the MMS software.
Baseline-adjusted PD parameters were calculated as follows: for example, ΔAUC^pH−t = AUC^pH−t − AUC^pH−tbaseline, ΔMean (pH) = Mean (pH) − Mean (pH)^baseline, and ΔMedian (pH) = Median (pH) − Median (pH)^baseline.

[1] = CYP2C19 EMs, H+/K+-ATPase Het (n = 8), 0–4 h
[2] = CYP2C19 EMs, H+/K+-ATPase Het (n = 8), 0–24 h
[3] = CYP2C19 EMs, H+/K+-ATPase Het (n = 8), 14–24 h
[4] = CYP2C19 EMs, H+/K+-ATPase Hom (n = 7), 0–4 h
[5] = CYP2C19 EMs, H+/K+-ATPase Hom (n = 7), 0–24 h
[6] = CYP2C19 EMs, H+/K+-ATPase Hom (n = 7), 14–24 h

Cc1c(OCC(F)(F)F)ccnc1C[S@@+]([O-])c1nc2ccccc2[nH]1 [dexlansoprazole]
TpH≥6(%) (14–24 h): 49.2 ± 25.2% | ΔMean (pH) (14–24 h): 2.8 ± 1.4 pH | ΔMedian (pH) (14–24 h): 3.1 ± 1.9 pH | ΔTpH≥3(%) (14–24 h): 60.0 ± 26.0% | ΔTpH≥4 (%) (14–24 h): 54.8 ± 28.3% | ΔTpH≥6(%) (14–24 h): 35.2 ± 25.6% | Mean (pH) (CYP2C19 EM (n = 11), 0–4 h): 5.7 ± 1.6 pH | Median (pH) (CYP2C19 EM (n = 11), 0–4 h): 6.2 ± 2.1 pH | TpH≥3(%) (CYP2C19 EM (n = 11), 0–4 h): 73.9 ± 21.7% | TpH≥4(%) (CYP2C19 EM (n = 11), 0–4 h): 69.3 ± 24.3% | TpH≥6(%) (CYP2C19 EM (n = 11), 0–4 h): 58.7 ± 31.9% | ΔMean (pH) (CYP2C19 EM (n = 11), 0–4 h): 3.2 ± 1.1 pH | ΔMedian (pH) (CYP2C19 EM (n = 11), 0–4 h): 3.9 ± 1.8 pH | ΔTpH≥3(%) (CYP2C19 EM (n = 11), 0–4 h): 48.6 ± 24.5% | ΔTpH≥4 (%) (CYP2C19 EM (n = 11), 0–4 h): 51.9 ± 17.7% | ΔTpH≥6(%) (CYP2C19 EM (n = 11), 0–4 h): 53.0 ± 27.4% | Mean (pH) (CYP2C19 EM (n = 11), 0–24 h): 5.7 ± 1.3 pH | Median (pH) (CYP2C19 EM (n = 11), 0–24 h): 5.9 ± 1.7 pH | TpH≥3(%) (CYP2C19 EM (n = 11), 0–24 h): 80.0 ± 19.5% | TpH≥4(%) (CYP2C19 EM (n = 11), 0–24 h): 73.0 ± 23.2% | TpH≥6(%) (CYP2C19 EM (n = 11), 0–24 h): 56.4 ± 24.1% | ΔMean (pH) (CYP2C19 EM (n = 11), 0–24 h): 2.8 ± 1.1^c pH | ΔMedian (pH) (CYP2C19 EM (n = 11), 0–24 h): 3.7 ± 1.5 pH | ΔTpH≥3(%) (CYP2C19 EM (n = 11), 0–24 h): 47.9 ± 20.2^c % | ΔTpH≥4 (%) (CYP2C19 EM (n = 11), 0–24 h): 50.4 ± 21.3^c % | ΔTpH≥6(%) (CYP2C19 EM (n = 11), 0–24 h): 47.4 ± 19.7^c % | Mean (pH) (CYP2C19 EM (n = 11), 14–24 h): 4.9 ± 1.7 pH | Median (pH) (CYP2C19 EM (n = 11), 14–24 h): 4.5 ± 2.0 pH | TpH≥3(%) (CYP2C19 EM (n = 11), 14–24 h): 67.5 ± 34.5% | TpH≥4(%) (CYP2C19 EM (n = 11), 14–24 h): 56.3 ± 37.2% | TpH≥6(%) (CYP2C19 EM (n = 11), 14–24 h): 37.1 ± 25.0^c % | ΔMean (pH) (CYP2C19 EM (n = 11), 14–24 h): 2.0 ± 1.2^c pH | ΔMedian (pH) (CYP2C19 EM (n = 11), 14–24 h): 2.1 ± 1.8^c pH | ΔTpH≥3(%) (CYP2C19 EM (n = 11), 14–24 h): 47.0 ± 27.6^c % | ΔTpH≥4 (%) (CYP2C19 EM (n = 11), 14–24 h): 38.6 ± 27.9^c % | ΔTpH≥6(%) (CYP2C19 EM (n = 11), 14–24 h): 21.1 ± 18.0^c % | Mean (pH) [1]: 4.7 ± 2.4 pH | Median (pH) [1]: 4.5 ± 2.8 pH | TpH≥3(%) [1]: 63.7 ± 35.7% | TpH≥4(%) [1]: 56.9 ± 39.3^c % | TpH≥6(%) [1]: 39.4 ± 48.2% | ΔMean (pH) [1]: 2.2 ± 0.8^c pH | ΔMedian (pH) [1]: 1.9 ± 1.0^a^,^c pH | ΔTpH≥3(%) [1]: 36.4 ± 20.1% | ΔTpH≥4 (%) [1]: 35.0 ± 11.7% | ΔTpH≥6(%) [1]: 33.8 ± 39.0% | Mean (pH) [2]: 5.1 ± 1.7 pH | Median (pH) [2]: 4.9 ± 2.1 pH | TpH≥3(%) [2]: 70.1 ± 26.3% | TpH≥4(%) [2]: 62.9 ± 33.1% | TpH≥6(%) [2]: 48.0 ± 32.5% | ΔMean (pH) [2]: 2.3 ± 0.6^c pH | ΔMedian (pH) [2]: 2.9 ± 1.6 pH | ΔTpH≥3(%) [2]: 40.8 ± 11.1^c % | ΔTpH≥4 (%) [2]: 41.4 ± 17.3^c % | ΔTpH≥6(%) [2]: 37.3 ± 19.1% | Mean (pH) [3]: 4.1 ± 2.1 pH | Median (pH) [3]: 3.5 ± 2.2 pH | TpH≥3(%) [3]: 53.0 ± 41.0% | TpH≥4(%) [3]: 44.6 ± 48.0% | TpH≥6(%) [3]: 30.2 ± 32.6% | ΔMean (pH) [3]: 1.2 ± 0.4^c pH | ΔMedian (pH) [3]: 0.5 ± 0.5^c pH | ΔTpH≥3(%) [3]: 31.5 ± 13.0^c % | ΔTpH≥4 (%) [3]: 25.1 ± 16.9% | ΔTpH≥6(%) [3]: 11.6 ± 2.9^c % | Mean (pH) [4]: 6.6 ± 0.5 pH | Median (pH) [4]: 7.8 ± 0.1 pH | TpH≥3(%) [4]: 78.7 ± 10.0% | TpH≥4(%) [4]: 77.1 ± 11.6^b % | TpH≥6(%) [4]: 75.5 ± 12.2% | ΔMean (pH) [4]: 4.3 ± 0.4^b pH | ΔMedian (pH) [4]: 5.9 ± 0.4^b pH | ΔTpH≥3(%) [4]: 62.5 ± 11.6% | ΔTpH≥4 (%) [4]: 67.2 ± 2.4% | ΔTpH≥6(%) [4]: 70.1 ± 4.5% | Mean (pH) [5]: 6.8 ± 0.2 pH | Median (pH) [5]: 7.5 ± 0.4 pH | TpH≥3(%) [5]: 95.1 ± 1.1% | TpH≥4(%) [5]: 87.9 ± 4.7% | TpH≥6(%) [5]: 73.4 ± 3.7% | ΔMean (pH) [5]: 4.3 ± 0.4^a^,^b pH | ΔMedian (pH) [5]: 5.4 ± 0.3 pH | ΔTpH≥3(%) [5]: 77.4 ± 6.3^a^,^b % | ΔTpH≥4 (%) [5]: 78.0 ± 1.5^a^,^b % | ΔTpH≥6(%) [5]: 68.7 ± 7.9% | Mean (pH) [6]: 6.2 ± 0.4 pH | Median (pH) [6]: 6.3 ± 1.3 pH | TpH≥3(%) [6]: 96.8 ± 1.2% | TpH≥4(%) [6]: 80.4 ± 6.2% | TpH≥6(%) [6]: 51.5 ± 10.9% | ΔMean (pH) [6]: 3.7 ± 0.5^a^,^b pH | ΔMedian (pH) [6]: 4.2 ± 0.8^b pH | ΔTpH≥3(%) [6]: 83.1 ± 5.9^a^,^b % | ΔTpH≥4 (%) [6]: 72.4 ± 1.5% | ΔTpH≥6(%) [6]: 45.8 ± 17.4^a^,^b %
